Measured values reported in article PMC9093745, “Carbohydrate Metabolism in Bacteria: Alternative Specificities in ADP-Glucose Pyrophosphorylases Open Novel Metabolic Scenarios and Biotechnological Tools” (Frontiers in Microbiology, 2022).

Tests used:
Type in all cases: biochemical
[1] = target: T1, A. tumefaciens ADP-Glc PPase (Agrobacterium tumefaciens, UniProt P39669); test: saturation curve, malachite green Pi release coupled to pyrophosphatase; details: ATP co-substrate, Mg2+, pH 8.0, 37°C
T1 construct: gene glgC; recombinant in E. coli; proteobacterial enzyme is a GlgC homotetramer
T1 sequence (P39669 1-420): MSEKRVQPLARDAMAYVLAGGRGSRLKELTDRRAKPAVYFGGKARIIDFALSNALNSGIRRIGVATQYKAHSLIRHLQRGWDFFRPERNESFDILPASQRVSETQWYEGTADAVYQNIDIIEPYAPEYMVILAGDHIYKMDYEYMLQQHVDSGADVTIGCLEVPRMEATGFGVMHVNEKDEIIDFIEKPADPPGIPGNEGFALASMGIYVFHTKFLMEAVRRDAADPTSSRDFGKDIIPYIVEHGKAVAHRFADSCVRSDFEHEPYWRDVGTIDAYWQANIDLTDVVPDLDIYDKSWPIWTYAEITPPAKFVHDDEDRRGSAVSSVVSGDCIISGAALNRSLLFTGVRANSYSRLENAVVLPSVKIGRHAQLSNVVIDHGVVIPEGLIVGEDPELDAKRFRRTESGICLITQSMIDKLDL

[2] = target: T2, S. coelicolor ADP-Glc PPase (Streptomyces coelicolor, UniProt P72394); test: activation curve, malachite green Pi release coupled to pyrophosphatase; details: allosteric activator (4-fold); Glc-1P and ATP as substrates, Mg2+, pH 8.0, 37°C; read-out: A0.5
T2 construct: gene glgC; recombinant in E. coli BL21 (DE3), His-tagged, IMAC purified; actinobacterial enzyme is a GlgC tetramer
T2 sequence (P72394 1-399): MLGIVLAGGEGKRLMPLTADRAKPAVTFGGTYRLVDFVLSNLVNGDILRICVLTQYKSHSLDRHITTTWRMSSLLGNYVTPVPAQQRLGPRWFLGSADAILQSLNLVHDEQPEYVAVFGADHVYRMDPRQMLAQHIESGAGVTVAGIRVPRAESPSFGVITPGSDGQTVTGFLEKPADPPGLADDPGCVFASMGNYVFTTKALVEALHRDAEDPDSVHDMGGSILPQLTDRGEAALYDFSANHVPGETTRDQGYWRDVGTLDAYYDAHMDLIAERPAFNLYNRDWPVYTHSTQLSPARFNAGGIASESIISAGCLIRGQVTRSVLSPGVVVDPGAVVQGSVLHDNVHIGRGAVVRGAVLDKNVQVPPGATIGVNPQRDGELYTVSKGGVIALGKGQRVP

[3] = target: T3, K. rhizophila ADP-Glc PPase (Kocuria rhizophila, UniProt B2GHR6); test: as above; details: allosteric activator (Vmax 4-fold); Glc-1P and ATP as substrates, Mg2+, pH 8.0, 37°C; read-out: A0.5
T3 construct: gene glgC; recombinant in E. coli BL21 (DE3), His-tagged, IMAC purified; actinobacterial enzyme is a GlgC tetramer
T3 sequence (B2GHR6 1-414): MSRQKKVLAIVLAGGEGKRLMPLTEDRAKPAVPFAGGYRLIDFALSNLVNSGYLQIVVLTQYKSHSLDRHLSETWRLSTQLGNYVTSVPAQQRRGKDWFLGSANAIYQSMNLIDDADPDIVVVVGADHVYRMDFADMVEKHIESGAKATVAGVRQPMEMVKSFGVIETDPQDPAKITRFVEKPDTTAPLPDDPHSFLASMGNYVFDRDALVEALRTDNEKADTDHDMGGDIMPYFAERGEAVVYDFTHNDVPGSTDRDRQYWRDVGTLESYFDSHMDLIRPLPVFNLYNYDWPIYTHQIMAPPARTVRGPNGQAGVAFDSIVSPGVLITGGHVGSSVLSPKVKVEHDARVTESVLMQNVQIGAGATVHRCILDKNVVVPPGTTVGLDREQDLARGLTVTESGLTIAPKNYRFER

[4] = target: T1, A. tumefaciens ADP-Glc PPase; test: effect on ADP-Glc synthesis, malachite green Pi release; details: allosteric effector, lowers activity; Glc-1P and ATP as substrates, Mg2+, pH 8.0, 37°C
[5] = target: T4, R. albus ADP-Glc PPase GlgC/GlgD (Hominimerdicola alba, UniProt E9SED8); test: activation of ADP-Glc synthesis, malachite green Pi release; details: allosteric activator; Glc-1P and ATP as substrates, Mg2+, pH 8.0, 37°C
T4 construct: recombinant in E. coli, IMAC purified; heterotetramer; with Glucose-1-phosphate adenylyltransferase, GlgD subunit
T4 sequence (E9SED8 1-400): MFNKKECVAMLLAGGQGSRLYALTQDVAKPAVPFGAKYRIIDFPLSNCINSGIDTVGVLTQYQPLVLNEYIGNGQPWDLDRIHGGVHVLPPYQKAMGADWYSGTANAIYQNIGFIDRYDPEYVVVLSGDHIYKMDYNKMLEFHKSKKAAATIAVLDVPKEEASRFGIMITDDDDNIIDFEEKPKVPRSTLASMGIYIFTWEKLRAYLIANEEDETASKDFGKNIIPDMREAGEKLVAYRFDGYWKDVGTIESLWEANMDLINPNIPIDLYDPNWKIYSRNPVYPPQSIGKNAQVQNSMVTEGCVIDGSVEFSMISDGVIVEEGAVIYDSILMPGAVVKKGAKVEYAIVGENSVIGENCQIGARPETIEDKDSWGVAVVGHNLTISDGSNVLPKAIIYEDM
T4 sequence (E9SED9 1-371 partner): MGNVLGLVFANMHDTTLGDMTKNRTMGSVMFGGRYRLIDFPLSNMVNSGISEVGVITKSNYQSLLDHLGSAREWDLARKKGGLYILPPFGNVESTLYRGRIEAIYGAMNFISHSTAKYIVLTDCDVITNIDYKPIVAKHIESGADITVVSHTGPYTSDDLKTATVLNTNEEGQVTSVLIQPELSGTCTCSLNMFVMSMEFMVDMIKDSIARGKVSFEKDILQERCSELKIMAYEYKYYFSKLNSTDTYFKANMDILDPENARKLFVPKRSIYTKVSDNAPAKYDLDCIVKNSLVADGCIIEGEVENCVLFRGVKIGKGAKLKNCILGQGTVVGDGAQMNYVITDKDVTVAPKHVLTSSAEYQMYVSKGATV

[6] = target: T5, R. fascians ADP-Glc PPase (Rhodococcoides fascians, UniProt A0A143QED7); test: as above; details: allosteric activator; Glc-1P and ATP as substrates, Mg2+, pH 8.0, 37°C
T5 construct: gene glgC; recombinant in E. coli BL21 (DE3), His-tagged, IMAC purified; actinobacterial enzyme is a GlgC tetramer
T5 sequence (A0A143QED7 1-404): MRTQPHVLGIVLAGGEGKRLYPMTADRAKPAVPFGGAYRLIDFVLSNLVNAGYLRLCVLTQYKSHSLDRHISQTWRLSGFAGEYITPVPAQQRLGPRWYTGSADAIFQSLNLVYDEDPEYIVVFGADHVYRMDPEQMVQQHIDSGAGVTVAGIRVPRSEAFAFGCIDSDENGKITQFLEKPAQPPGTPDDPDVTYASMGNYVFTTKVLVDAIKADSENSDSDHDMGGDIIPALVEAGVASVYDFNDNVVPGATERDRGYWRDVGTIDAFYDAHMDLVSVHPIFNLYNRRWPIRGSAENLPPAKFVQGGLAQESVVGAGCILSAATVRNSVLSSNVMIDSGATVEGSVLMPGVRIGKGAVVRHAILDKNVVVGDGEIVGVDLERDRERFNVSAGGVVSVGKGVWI

[7] = target: T6, R. albus ADP-Glc PPase GlgC (Hominimerdicola alba, UniProt E9SED8); test: as above; details: allosteric activator; Glc-1P and ATP as substrates, Mg2+, pH 8.0, 37°C
T6 construct: recombinant in E. coli, IMAC purified; homotetramer
T6 sequence (E9SED8 1-400): T4 sequence (E9SED8 1-400)

| SMILES | Km [1] | EC50 [2] [µM] | EC50 [3] [µM] | % decrease of activity [4] | activation of ADP-Glc synthesis, malachite green Pi release [5] | fold activation [6] | activation of ADP-Glc synthesis, malachite green Pi release [7] |
| --- | --- | --- | --- | --- | --- | --- | --- |
| N[C@H]1[C@@H](OP(=O)(O)O)O[C@H](CO)[C@@H](O)[C@@H]1O [GlcN-1P] | The enzyme was active with GlcN-1P as a substrate |  |  |  |  |  |  |
| N[C@H]1C(O)O[C@H](COP(=O)(O)O)[C@@H](O)[C@@H]1O (some centres unmarked) [GlcN-6P] |  | 3550 ± 520 | 80 | ~ 30% | both R. albus GlgC and GlgC/GlgD responded to GlcN-6P activation | ~ 8 fold | both R. albus GlgC and GlgC/GlgD responded to GlcN-6P activation |
| O=P(O)(O)OC[C@H]1OC(O)[C@H](O)[C@@H](O)[C@@H]1O (some centres unmarked) [Glc-6P] |  |  |  |  |  | ~ 8 fold |  |
